Details: rat; liver microsomes; pH 7.4; 15.0 min; 1.0 µM

Point of comparison: `O=C(CCCCn1c(=O)[nH]c2ccsc2c1=O)N1CCN(c2cccc(Cl)c2)CC1`, half-life 8.06 min. Against it:
- Nc1ccc(-c2cccc3c(=O)cc(N4CCOCC4)oc23)cc1 — higher, > 30 min
- COCCNCc1ccc(-c2cc3nccc(Oc4ccc(NC(=O)C5(C(=O)Nc6ccc(F)cc6)CC5)cc4F)c3s2)nc1 — 1.8-fold higher, 14.8 min
- CC(=O)c1c(C)[nH]c(C(=O)Nc2cccc(S(=O)(=O)Nc3ccc(Br)c(F)c3)c2)c1C — 2.1-fold higher, 17 min
- O=C(Nc1ccc(-c2nc3cc(NC(=O)c4ccccc4Cl)ccc3o2)cc1)c1ccccc1Cl — higher, > 30 min
- CS(=O)(=O)Nc1cccc(-c2nccc(-n3ccnc3)n2)c1 — higher, > 30 min
- CC[C@@]1(O)C(=O)OCc2c1cc1n(c2=O)Cc2c-1nc1ccccc1c2CCNC(C)C — higher, > 30 min
- Cc1nn(-c2ccccc2)c2nc(C3CC3)cc(C(=O)Nc3ccc(F)cc3)c12 — higher, > 30 min
- CCOc1ccc(C(C)CNC(=O)c2cc3sccc3n2Cc2ccccc2)cc1OCC (stereo unspecified) — 3.2-fold lower, 2.5 min
- COc1cccc(S(=O)(=O)Nc2cnccc2C(=O)Nc2nc(-c3ccccc3)cs2)c1 — within 1.5-fold, 6.7 min
- Nc1cccc(CNc2ccc(S(=O)(=O)Nc3nccs3)cc2)c1O — higher, > 30 min
- CCOc1ccc(CCNC(=O)c2cc3ccncc3n2Cc2cccc(C)c2)cc1OCC — within 1.5-fold, 7.1 min
- CCc1ccc2oc(=O)cc(CN3CCN(c4ccccc4F)CC3)c2c1 — 2.7-fold lower, 3 min
- C[S+](=O)([O-])c1ccc(-c2nc(C(=O)N3CCOCC3)n3ccncc23)cc1 — higher, > 30 min
- CC(CNC(=O)C1CCN(Cc2cc3ccccc3n2Cc2ccccc2)CC1)c1ccccc1 (stereo unspecified) — 7-fold lower, 1.15 min
- CC(=O)c1ccc(N2CCN(S(=O)(=O)c3ccc4c(c3)CC(=O)N4)CC2)cc1 — higher, > 30 min
- O=C(c1ccc2ncccc2c1)N1CCc2c(nc3cc[nH]n3c2=O)C1 — higher, > 30 min
- COc1ccc(C(=O)N2CCCC(c3nn(-c4ccc(OC)cc4)c(=O)[nH]3)C2)cc1 (stereo unspecified) — higher, > 30 min
- Cc1noc(/C=C/c2ccccc2F)c1S(=O)(=O)N1CCC(C(=O)Nc2ccc(C#N)cc2)CC1 — 3.1-fold higher, 24.7 min
- Cc1cc(Br)ccc1NC(=O)C(NS(=O)(=O)c1cccs1)c1ccccc1 (stereo unspecified) — within 1.5-fold, 7.26 min
- Oc1c(C(Nc2nccs2)c2ccc(C(F)(F)F)cc2)ccc2cccnc12 (stereo unspecified) — 2.3-fold lower, 3.54 min
- CC(C)CS(=O)(=O)c1oc(-c2ccc(F)cc2)nc1S(=O)(=O)c1ccccc1 — 6.8-fold lower, 1.18 min
- CC(=O)Nc1ncc(S(=O)(=O)Nc2cnccc2C(=O)Nc2nc(-c3ccccc3)cs2)s1 — higher, > 30 min
- COc1cccc(CC(=O)Nc2nc(-c3ccc4c(c3)CCN4C(=O)c3ccccc3C)c(C)s2)c1 — 2.4-fold higher, 19 min
- CNC(=O)c1cc(Oc2ccc(NC(=O)Nc3cc(C(C)(C)C)nn3-c3ccc4ncccc4c3)c(F)c2)ccn1 — within 1.5-fold, 6.64 min
- CCOc1ccc(CCNC(=O)c2cc3sccc3n2C)cc1OCC — 5-fold lower, 1.6 min
- COc1ccc(C2c3[nH]c4ccc(OC)cc4c3CCN2C(=O)Nc2ccccc2)cc1 (stereo unspecified) — 3.2-fold higher, 25.7 min
- CC(=O)Nc1ccc(S(=O)(=O)Nc2nccs2)cc1 — higher, > 30 min
- Cc1ccc(-c2ccc(CNc3nc(-c4ccccc4C(C)C)ncc3F)cc2)cn1 — 1.8-fold lower, 4.5 min
- O=C(CSc1ccccc1)Nc1nnc(COc2ccc(Cl)cc2)s1 — within 1.5-fold, 7 min
- CCc1oc2ccccc2c1C(=O)c1cc(Br)c(O)c(Br)c1 — within 1.5-fold, 9.75 min
- O=C(c1cnc(N2CCCCC2)c2ccccc12)N1CCN(c2ccccn2)CC1 — 3.8-fold lower, 2.1 min
- CN(C)CC/C=C1\c2ccccc2Sc2ccc(Cl)cc21 — 4.6-fold lower, 1.76 min
- CC(C)c1ccc2oc3nc(N)c(C(=O)O)cc3c(=O)c2c1 — higher, > 30 min
- Cc1ccc(/C=C/c2nc3ccccc3n2S(=O)(=O)c2cccc(Cl)c2)cc1 — 2.2-fold higher, 17.6 min
- Cn1nnnc1Sc1ncnc2scc(-c3cc4ccccc4o3)c12 — 7.7-fold lower, 1.05 min
- Cc1cnc(NC(=O)c2ccc(-c3cccc([N+](=O)[O-])c3)o2)s1 — within 1.5-fold, 10 min
- Cc1ccc(-n2ncc3c(NCCCN(C)C)ncnc32)cc1Cl — within 1.5-fold, 8.9 min
- Cc1cccc2nc(NC3=NC(c4[nH]ncc4Cl)C4=C(CCCC4=O)N3)oc12 (stereo unspecified) — 5-fold lower, 1.6 min
- Cc1ccc(S(=O)(=O)Nc2ccccc2C(=O)Nc2ccc(-c3ccccc3)cc2)cc1 — within 1.5-fold, 7.3 min
- Cc1ccnc(NC(=S)N2CC[C@@H](Nc3cccc(C(F)(F)F)c3)C2)c1 — 2.3-fold lower, 3.5 min
- NC(=O)C1CCN(c2nccc(Cl)n2)CC1 — higher, > 30 min
- Cc1ccc(S(=O)(=O)Nc2nc3ccc(C)cc3nc2Nc2ccc3c(c2)OCO3)cc1 — higher, > 30 min
- Cc1nn(CCc2nc(-c3ccc4ccccc4c3)cs2)c2[nH]c(=O)cc(C(F)(F)F)c12 — within 1.5-fold, 6.4 min
- NC(=O)C1CCN(c2nc(-c3cccc4ccccc34)cs2)CC1 — 1.7-fold lower, 4.72 min
- Fc1cc(Nc2nc(-c3ccncc3)nc3ccccc23)ccc1-c1cn[nH]c1 — 2.4-fold higher, 19 min
- COc1ccc(-n2nc(C3CCCN(C(=O)Nc4ccccc4)C3)[nH]c2=O)cc1 (stereo unspecified) — higher, > 30 min
- Cc1ccc(C)c(NC2=C(c3ccc(C(F)(F)F)cc3)C(=O)c3ccccc32)c1 — within 1.5-fold, 9.11 min
- C[C@H]1CN(C(=O)Nc2ccc(F)cc2F)C[C@@H]1c1nc(-c2ccccc2)no1 — higher, > 30 min
- O=S(=O)(Nc1ccccc1N1CCCCC1)c1ccc(Cl)s1 — 4-fold lower, 2.02 min
- CCOC(=O)c1ccc(NC(=O)CSc2nc3c(cc2C#N)N2CCC3CC2)cc1 — 1.9-fold lower, 4.26 min
